Patent publication US20150296773A1, “COMPOSITIONS COMPRISING A […] MIXTURE AND AN INSECTICIDE” (Bayer CropScience AG, priority 2012, published 2015)

Legend:
Type in all cases: in vivo
Phaedon cochleariae = Phaedon cochleariae spray test (Example D, Chinese cabbage leaf-disks); conditions: mortality after 6 d
Protocol: Phaedon cochleariae—Spray Test
Solvent: 78.0 parts by weight of acetone • • 1.5 parts by weight of dimethylformamide Emulsifier: 0.5 parts by weight of alkylaryl polyglycolether
(§1) To produce a suitable preparation of active compound, 1 part by weight of active compound is mixed with the stated amount of solvent and emulsifier, and the concentrate is diluted with emulsifier-containing water to the desired concentration. To produce a suitable preparation of a spore suspension the spores are diluted with emulsifier-containing water to the desired concentration.
Chinese cabbage (Brassica pekinensis) leaf-disks are sprayed with a preparation of the active ingredient of the desired concentration. Once dry, the leaf disks are infested with mustard beetle larvae (Phaedon cochleariae).
After the specified period of time, mortality in % is determined 100% means all beetle larvae have been killed and 0% means none of the beetle larvae have been killed. The mortality values determined thus are recalculated using the Colby-formula (see above).

Myzus persicae [1] = assay: Myzus persicae spray test (Example A, pepper leaves); conditions: for Efficacy in % after 5 d: mortality after 5 d; for Efficacy in % after 4 d: mortality after 4 d
Protocol: (§2) Myzus persicae—Spray Test
(§3) Solvent: 7 parts by weight of dimethylformamide Emulsifier: 2 parts by weight of alkylaryl polyglycolether
(§4) To produce a suitable preparation of active compound, 1 part by weight of active compound is mixed with the stated amount of solvent and emulsifier, and the concentrate is diluted with emulsifier-containing water to the desired concentration. To produce a suitable preparation of a spore suspension the spores are diluted with emulsifier-containing water to the desired concentration Ammonium salt and/or penetration enhancer in a dosage of 1000 ppm are added to the desired concentration, if necessary.
Pepper leaves (Capsicum annuum) which are heavily infested by the green peach aphid (Myzus persicae) are treated by being sprayed with the preparation of the active compound of the desired concentration.
After the specified period of time, mortality in % is determined 100% means all the aphids have been killed; 0% means none of the aphids have been killed. The mortality values determined thus are recalculated using the Colby-formula (see above).

Aphis gossypii = Aphis gossypii spray test (Example B, cotton leaves); conditions: mortality after 1 d
Protocol: Aphis gossypii—Spray Test
as §3, §4
Cotton leaves (Gossypium hirsutum) which are heavily infested by the cotton aphid (Aphis gossypii) are treated by being sprayed with the preparation of the active compound of the desired concentration.
After the specified period of time, the mortality in % is determined 100% means all the aphids have been killed; 0% means none of the aphids have been killed. The mortality values determined thus are recalculated using the Colby-formula (see above).

Myzus persicae [2] = assay: Myzus persicae spray test (Example G, Chinese cabbage leaf-disks); conditions: for Efficacy in % after 6 d: mortality after 6 d; for Efficacy in % after 1 d: mortality after 1 d
Protocol: as §2
(§5) Solvent: 78.0 parts by weight acetone • 1.5 parts by weight dimethylformamide Emulsifier: 0.5 parts by weight alkylarylpolyglycolether
as §1
Chinese cabbage (Brassica pekinensis) leaf—disks infected with all instars of the green peach aphid (Myzus persicae) are sprayed with a preparation of the active ingredient of the desired concentration.
After the specified period of time, mortality in % is determined 100% means all aphids have been killed; 0% means none of the aphids have been killed. The mortality values determined thus are recalculated using the Colby-formula (see above).

Tetranychus urticae [3] = assay: Tetranychus urticae spray test, OP-resistant (Example H, French beans); conditions: for Efficacy in % after 6 d: mortality after 6 d; for Efficacy in % after 2 d: mortality after 2 d
Protocol: (§6) Tetranychus urticae—Spray Test, OP-Resistant
as §5, §1
French beans (Phaseolus vulgaris) which are heavily infested with all stages of the two spotted spidermite (Tetranychus urticae), are sprayed with a preparation of the active ingredient of the desired concentration.
After the specified period of time, mortality in % is determined 100% means all spider mites have been killed and 0% means none of the spider mites have been killed. The mortality values determined thus are recalculated using the Colby-formula (see above).

Spodoptera frugiperda [4] = assay: Spodoptera frugiperda test (SPODFR) (Example F, maize leaves); conditions: 0.075 g ai/ha; mortality after 3 d
Protocol: Spodoptera frugiperda—Test (SPODFR)
Solvent: 7 parts by weight of dimethylformamide Emulsifier: 1 part by weight of alkylaryl polyglycolether
as §4, with “concentration” for “concentration,”
Maize leaves (Zea mais) are treated by being sprayed with the preparation of the active compound of the desired concentration and are infested with caterpillars of the fall army worm (Spodoptera frugiperda). The mortality values determined thus are recalculated using the Colby-formula (see above).
After the specified period of time, mortality in % is determined 100% means all the caterpillars have been killed; 0% means none of the caterpillars have been killed.

Tetranychus urticae [5] = assay: Tetranychus urticae spray test, OP-resistant (Example C, bean plants); conditions: 0.8 ppm; mortality after 6 d
Protocol: as §6, §3
as §4, with “concentration” for “concentration,”
Bean plants (Phaseolus vulgaris) which are heavily infested with all stages of the two-spotted spider mite (Tetranychus urticae) are treated by being sprayed with the preparation of the active compound of the desired concentration.
After the specified period of time, mortality in % is determined 100% means all the spider mites have been killed; 0% means none of the spider mites have been killed. The mortality values determined thus are recalculated using the Colby-formula (see above).

Spodoptera frugiperda [6] = assay: Spodoptera frugiperda spray test (Example E, maize leaf sections); conditions: 0.032 g ai/ha; mortality after 6 d
Protocol: Spodoptera frugiperda—Spray Test
as §5
as §1, with “preparation of the active compound,” for “preparation of active compound,”, “preparation of spore suspension” for “preparation of a spore suspension”
Maize (Zea mais) leaf sections are sprayed with a preparation of the active ingredient of the desired concentration. Once dry, the leaf sections are infested with fall armyworm larvae (Spodoptera frugiperda).
After the specified period of time, mortality in % is determined 100% means all caterpillars have been killed and 0% means none of the caterpillars have been killed. The mortality values determined thus are recalculated using the Colby-formula (see above).

Compound: Cc1c(F)c(F)c(COC(=O)[C@@H]2[C@H](/C=C(\Cl)C(F)(F)F)C2(C)C)c(F)c1F (racemic) [Tefluthrin]
- Efficacy in % after 6 d (Phaedon cochleariae; 10 g ai/ha): 0%

Compound: CNC(=O)c1cc(Cl)cc(C)c1NC(=O)c1cc(Br)nn1-c1ncccc1Cl [Chlorantraniliprole]
- Efficacy in % after 5 d (Myzus persicae [1]; 8 ppm): 60%
- Efficacy in % after 1 d (Aphis gossypii; 4 ppm): 10%
- Efficacy in % after 1 d (Aphis gossypii; 8 ppm): 50%

Compound: CN/C(=N\[N+](=O)[O-])NCc1cnc(Cl)s1 [Clothianidin]
- Efficacy in % after 4 d (Myzus persicae [1]; 0.125 ppm): 3%
- Efficacy in % after 4 d (Myzus persicae [1]; 0.25 ppm): 10%
- Efficacy in % after 4 d (Myzus persicae [1]; 0.5 ppm): 65%
- Efficacy in % after 6 d (Phaedon cochleariae; 20 g ai/ha): 50%
- Efficacy in % after 1 d (Aphis gossypii; 0.25 ppm): 3%
- Efficacy in % after 1 d (Aphis gossypii; 0.5 ppm): 8%

Compound: CNC(=O)c1cc(C#N)cc(C)c1NC(=O)c1cc(Br)nn1-c1ncccc1Cl [Cyantraniliprole]
- Efficacy in % after 6 d (Phaedon cochleariae; 0.8 g ai/ha): 0%
- Efficacy in % after 6 d (Myzus persicae [2]; 0.8 g ai/ha): 0%

Compound: CC1(C)[C@H](C(=O)O[C@H](C#N)c2cccc(Oc3ccccc3)c2)[C@@H]1C=C(Br)Br [Deltamethrin]
- Efficacy in % after 6 d (Tetranychus urticae [3]; 4 g ai/ha): 0%

Compound: N#Cc1nn(-c2c(Cl)cc(C(F)(F)F)cc2Cl)c(N)c1[S+]([O-])C(F)(F)F (centres unmarked) [Fipronil]
- Efficacy in % after 6 d (Tetranychus urticae [3]; 100 g ai/ha): 0%
- Efficacy in % after 6 d (Myzus persicae [2]; 100 g ai/ha): 0%

Compound: Cc1cc(C(F)(C(F)(F)F)C(F)(F)F)ccc1NC(=O)c1cccc(I)c1C(=O)NC(C)(C)CS(C)(=O)=O [Flubendiamide]
- Efficacy in % after 3 d (Spodoptera frugiperda [4]): 18%

Compound: O=C1C=C(N(Cc2ccc(Cl)nc2)CC(F)F)CO1 [Flupyradifurone]
- Efficacy in % after 6 d (Myzus persicae [2]; 0.8 g ai/ha): 0%

Compound: Cc1cc(F)c(-n2nc(C(F)(F)F)nc2N)cc1[S+]([O-])CC(F)(F)F (centres unmarked) [I277, 1-{2-fluoro-4-methyl-5-[(2,2,2-trifluorethyl)sulfinyl]phenyl}-3-(trifluoromethyl)-1H-1,2,4-triazol-5-amine]
- Efficacy in % after 6 d (Tetranychus urticae [5]): 25%
- Efficacy in % after 6 d (Tetranychus urticae [3]; 4 g ai/ha): 70%

Compound: O=[N+]([O-])NC1=NCCN1Cc1ccc(Cl)nc1 [Imidacloprid]
- Efficacy in % after 1 d (Myzus persicae [2]; 0.16 g ai/ha): 70%

Compound: CNC(=O)Oc1cc(C)c(SC)c(C)c1 [Methiocarb]
- Efficacy in % after 6 d (Tetranychus urticae [3]; 100 g ai/ha): 20%
- Efficacy in % after 6 d (Myzus persicae [2]; 500 g ai/ha): 0%

Compound: Cc1cc(C)c(C2=C(OC(=O)CC(C)(C)C)C3(CCCC3)OC2=O)c(C)c1 [Spiromesifen]
- Efficacy in % after 6 d (Tetranychus urticae [3]; 0.8 g ai/ha): 30%

Compound: CCOC(=O)OC1=C(c2cc(C)ccc2C)C(=O)N[C@]12CC[C@@H](OC)CC2 [Spirotetramat]
- Efficacy in % after 6 d (Tetranychus urticae [3]; 0.8 g ai/ha): 0%
- Efficacy in % after 6 d (Myzus persicae [2]; 0.8 g ai/ha): 0%

Compound: CC(c1ccc(C(F)(F)F)nc1)S(C)(=O)=NC#N (centres unmarked) [Sulfoxaflor]
- Efficacy in % after 6 d (Myzus persicae [2]; 0.16 g ai/ha): 70%

Compound: N#C/N=C1\SCCN1Cc1ccc(Cl)nc1 [Thiacloprid]
- Efficacy in % after 6 d (Myzus persicae [2]; 0.16 g ai/ha): 0%

Compound: CN1COCN(Cc2cnc(Cl)s2)/C1=N\[N+](=O)[O-] [Thiamethoxam]
- Efficacy in % after 1 d (Myzus persicae [2]; 0.8 g ai/ha): 70%

Compound: CS/C(C)=N\OC(=O)N(C)SN(C)C(=O)O/N=C(\C)SC [Thiodicarb]
- Efficacy in % after 6 d (Myzus persicae [2]; 100 g ai/ha): 0%

Compound: CC1(C)C(C=C(Cl)Cl)C1C(=O)OC(C#N)c1ccc(F)c(Oc2ccccc2)c1 (stereo not drawn) [β-Cyfluthrin, beta-Cyfluthrin]
- Efficacy in % after 6 d (Tetranychus urticae [3]; 4 g ai/ha): 0%
- Efficacy in % after 6 d (Myzus persicae [2]; 0.16 g ai/ha): 0%

Compound: Abamectin
- Efficacy in % after 5 d (Myzus persicae [1]; 2 ppm): 30%

Compound: Spinetoram
- Efficacy in % after 2 d (Tetranychus urticae [3]; 4 g ai/ha): 20%
- Efficacy in % after 6 d (Spodoptera frugiperda [6]): 33%

Compound: Spinosad
- Efficacy in % after 2 d (Tetranychus urticae [3]; 4 g ai/ha): 0%
